For orientation: pIC50 means the IC50 on a negative log10 scale, so that one unit is a factor of ten.

Here are results for 26 molecules from patent US8846694B2, “Pyrrolidone derivatives for use as MetAP-2 inhibitors” (Merck Patent GmbH, priority 2008, dated 2014).

pIC50: −log10 of the molar value.

In this test the target is MetAP-2 (Homo sapiens, UniProt P50579). Nature of the test: MetAP-2 activity measurement (coupled enzymatic reactions, substrate Met-Arg-Ser, photometric at 450 nm). The settings on record: read-out: IC50 enzyme (Inhibition of MetAP-2). It counts as biochemical. On the procedure: MetAP-2 Activity Measurement
Sequence of MetAP-2 (P50579 whole entry, species assumed): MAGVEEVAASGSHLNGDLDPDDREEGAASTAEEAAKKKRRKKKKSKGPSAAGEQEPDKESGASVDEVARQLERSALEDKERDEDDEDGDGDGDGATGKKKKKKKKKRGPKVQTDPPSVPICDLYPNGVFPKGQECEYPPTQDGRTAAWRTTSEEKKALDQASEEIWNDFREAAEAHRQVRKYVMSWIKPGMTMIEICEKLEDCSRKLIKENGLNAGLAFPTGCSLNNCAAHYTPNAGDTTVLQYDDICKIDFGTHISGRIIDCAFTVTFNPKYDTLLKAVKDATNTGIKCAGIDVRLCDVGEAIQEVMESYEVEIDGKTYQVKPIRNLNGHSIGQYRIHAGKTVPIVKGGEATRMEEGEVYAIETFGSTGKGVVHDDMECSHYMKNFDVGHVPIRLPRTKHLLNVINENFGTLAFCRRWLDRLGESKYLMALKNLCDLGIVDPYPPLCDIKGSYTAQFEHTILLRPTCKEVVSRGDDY
The MetAP-2 activity is determined by coupling enzymatic reactions. The tripeptide Met-Arg-Ser (MAS) is employed as substrate. The methionine liberated is firstly converted into Metox and H2O2 by L-aminooxidase (AAO). In the second step, the peroxidase (POD) with the aid of the H2O2 catalyses the oxidation of the leukodye dianisidine to dianisidineox, the increase of which is detected photometrically at 450 nm.
MetAP-2 activity can be recorded continuously as kinetics. The reaction scheme illustrates that one mol of dianisidineox is formed per mol of methionene. The MetAP-2 enzyme activity can therefore be calculated directly as Δ absorption per time unit. […] of the MetAP-2 activity (mol of Met/time unit) is possible with the aid of the dianisidineox extinction coefficient.
The change in extinction per time unit is depicted graphically and a slope calculation is carried out in the visually linear region of the reaction.
On to `CC(C)(C)OC(=O)N[C@@H](CCC(N)=O)C(=O)Nc1ccc2cccc(OC[C@H]3CCCN3c3ncnc4[nH]cnc34)c2c1` [A161, tert-Butyl ((S)-3-carbamoyl-1-{8-[(R)-1-(9H-purin-6-yl)pyrrolidin-2-ylmethoxy]naphthalen-2-ylcarbamoyl}propyl)carbamate], for which the pIC50 is 5.00 to 6.00.

As for `CC(C)(C)OC(=O)N[C@H](CC(N)=O)C(=O)Nc1ccc2cccc(OC[C@H]3CCCN3c3ncnc4[nH]cnc34)c2c1` [A162, tert-Butyl ((R)-2-carbamoyl-1-{8-[(R)-1-(9H-purin-6-yl)pyrrolidin-2-ylmethoxy]naphthalen-2-ylcarbamoyl}ethyl)carbamate], the pIC50 is 5.00 to 6.00.

In the case of `O=C(O)/C=C1/CCc2c(OC[C@H]3CCCN3c3ncnc4[nH]cnc34)cccc2C1=O` [A53, [1-Oxo-5-[(R)-1-(9H-purin-6-yl)pyrrolidin-2-yl-methoxy]-3,4-dihydro-1H-naphthalen-(2Z)-ylidene]acetic acid], the pIC50 is 6.00 to 8.00.

With `CCOC(=O)CNC(=O)N1CCN(c2ccc3cccc(OC[C@H]4CCCN4c4ncnc5[nH]cnc45)c3c2)CC1` [A157, Ethyl [(4-{8-[(R)-1-(9H-purin-6-yl)pyrrolidin-2-yl-methoxy]naphthalen-2-yl}piperazine-1-carbonyl)amino]acetate], the pIC50 is 5.00 to 6.00.

With `c1cc(OC[C@H]2CCCN2c2ncnc3[nH]cnc23)c2ncoc2c1` [A73, 6-[(R)-2-(Benzoxazol-4-yloxymethyl)pyrrolidin-1-yl]-9H-purine], the pIC50 was 5.00 to 6.00.

For `F[C@@H]1C[C@H](COc2cccc3ccccc23)N(c2ncnc3[nH]cnc23)C1` [A26, 6-[(2R,4R)-4-Fluoro-2-(naphthalen-1-yl-oxymethyl)pyrrolidin-1-yl]-9H-purine], the negative-log IC50 (pIC50) was less than 5.00.

Turning to `N#CCCN1CCN(Cc2ccc(OC[C@H]3CCCN3c3ncnc4[nH]cnc34)c3ccccc23)CC1` [A128, 3-(4-{4-[(R)-1-(9H-Purin-6-yl)pyrrolidin-2-yl-methoxy]naphthalen-1-ylmethyl}piperazin-1-yl)-propionitrile], the pIC50 is 6.00 to 8.00.

Regarding `c1cnc2c(OC[C@H]3CCCN3c3ncnc4[nH]cnc34)cccc2c1` [A43, 8-[(R)-1-(9H-Purin-6-yl)pyrrolidin-2-yl-methoxy]quinoline], the pIC50 was 5.00 to 6.00.

As for `O=C1c2cccc(OC[C@H]3CCCN3c3ncnc4[nH]cnc34)c2CC[C@@H]1Cc1c[nH]cn1` [A96, (R)-2-(1H-Imidazol-4-ylmethyl)-5-[(R)-1-(9H-purin-6-yl)pyrrolidin-ylmethoxy]-3,4-dihydro-2H-naphthalen-1-one], the pIC50 is 6.00 to 8.00.

For the molecule `Nn1ccc2c(N3CCC[C@@H]3COc3ccccc3F)ncnc21` [A24, 4-[(R)-2-(2-Fluorophenoxymethyl)pyrrolidin-1-yl]pyrrolo[2,3-d]pyrimidin-7-ylamine], the pIC50 was less than 5.00.

With `CNC(=O)/C=C/c1ccccc1OC[C@H]1CCCN1c1ncnc2[nH]cnc12` [A78, (E)-N-Methyl-3-{2-[(R)-1-(9H-purin-6-yl)-pyrrolidin-2-ylmethoxy]phenyl}acrylamide], the pIC50 is 5.00 to 6.00.

Regarding `COCCN1CCN(Cc2ccc(OC[C@H]3CCCN3c3ncnc4[nH]cnc34)c3ccccc23)CC1` [A113, 6-((R)-2-{4-[4-(2-Methoxyethyl)piperazin-1-yl-methyl]naphthalen-1-yloxymethyl}pyrrolidin-1-yl)-9H-purine], the pIC50 was 6.00 to 8.00.

Take `c1ccc(CN2CCN(c3ccc4cccc(OC[C@H]5CCCN5c5ncnc6[nH]cnc56)c4c3)CC2)cc1` [A106, 6-{(R)-2-[7-(4-Benzylpiperazin-1-yl)naphthalen-1-yloxymethyl]pyrrolidin-1-yI}-9H-purine]: the pIC50 is less than 5.00.

As for `O=[N+]([O-])c1ccc2cccc(OC[C@H]3CCCN3c3ncnc4[nH]cnc34)c2c1` [A142, 6-[(R)-2-(7-Nitronaphthalen-1-yloxymethyl)-pyrrolidin-1-yl]-9H-purine], the pIC50 is 6.00 to 8.00.

For the molecule `CCOC(=O)Cn1c(C(=O)OCC)c(OC[C@H]2CCCN2c2ncnc3[nH]cnc23)c2cc(F)ccc21` [A185, Ethyl 1-ethoxycarbonylmethyl-5-fluoro-3-[(R)-1-(9H-purin-6-yl)pyrrolidin-2-ylmethoxy]-1H-indole-2-carboxylate], the pIC50 was less than 5.00.

As to `c1ccc(-c2cccc(OC[C@H]3CCCN3c3ncnc4[nH]cnc34)c2)cc1` [A63, 6-[(R)-2-(Biphenyl-3-yloxymethyl)pyrrolidin-1-yl]-9H-purine], the pIC50 was 5.00 to 6.00.

For the molecule `COC(=O)CC[C@H](NC(=O)OCc1ccccc1)C(=O)Nc1ccc2cccc(OC[C@H]3CCCN3c3ncnc4[nH]cnc34)c2c1` [A160, Methyl (S)-4-benzyloxycarbonylamino-4-{8-[(R)-1-(9H-purin-6-yl)pyrrolidin-2-ylmethoxy]-naphthalen-2-ylcarbamoyl}butyrate], the pIC50 was less than 5.00.

Regarding `c1ccc(-c2nc3ccccc3s2)c(OC[C@H]2CCCN2c2ncnc3[nH]cnc23)c1` [A103, 6-[(R)-2-(2-Benzothiazol-2-ylphenoxymethyl)-pyrrolidin-1-yl]-9H-purine], the pIC50 was 5.00 to 6.00.

With `O=C1c2cccc(OC[C@H]3CCCN3c3ncnc4[nH]cnc34)c2CC[C@@H]1Cc1cc[nH]n1` [A129, (R)-5-[(R)-1-(9H-Purin-6-yl)pyrrolidin-2-yl-methoxy]-2-(1H-pyrazol-3-ylmethyl)-3,4-dihydro-2H-naphthalen-1-one], the pIC50 was 6.00 to 8.00.

Turning to `CN(C)C(=O)C[C@@H]1CCc2c(OC[C@H]3CCCN3c3ncnc4[nH]cnc34)cccc2C1=O` [A174, N,N-Dimethyl-2-{(S)-1-oxo-5-[(R)-1-(9H-purin-6-yl)pyrrolidin-2-ylmethoxy]-1,2,3,4-tetrahydro-naphthalen-2-yl}acetamide], the pIC50 was 6.00 to 8.00.

Take `c1ccc2c(OC[C@H]3CCCN3c3ncnc4[nH]cnc34)cc(CNCCN3CCOCC3)nc2c1` [A191, (2-Morpholin-4-ylethyl)-{4-[(R)-1-(9H-purin-6-yl)pyrrolidin-2-ylmethoxy]quinolin-2-yl-methyl}amine]: the pIC50 is 6.00 to 8.00.

On to `Cn1c(C(=O)O)c(OC[C@H]2CCCN2c2ncnc3[nH]cnc23)c2cc(F)ccc21` [A190, 5-Fluoro-1-methyl-3-[(R)-1-(9H-purin-6-yl)-pyrrolidin-2-ylmethoxy]-1H-indole-2-carboxylic acid], for which the pIC50 is less than 5.00.

For the molecule `CC(C)(C)OC(=O)N[C@@H](Cc1c[nH]cn1)C(=O)N1CCc2cccc(OC[C@H]3CCCN3c3ncnc4[nH]cnc34)c2C1` [A189, tert-Butyl ((S)-1-(1H-imidazol-4-ylmethyl)-2-oxo-2-{8-[(R)-1-(9H-purin-6-yl)pyrrolidin-2-yl-methoxy]-3,4-dihydro-1H-isoquinolin-2-yl}ethyl)-carbamate], the pIC50 is 5.00 to 6.00.

Take `O=C(O)c1cc(OC[C@H]2CCCN2c2ncnc3[nH]cnc23)c2cc(F)ccc2n1` [A141, 6-Fluoro-4-[(R)-1-(9H-purin-6-yl)pyrrolidin-2-yl-methoxy]quinoline-2-carboxylic acid]: the pIC50 is 6.00 to 8.00.

Consider `Clc1ncc(OC[C@H]2CCCN2c2ncnc3[nH]cnc23)c2ccccc12` [A57, 1 -Chloro-4-[(R)-1-(9H-purin-6-yl)pyrrolidin-2-yl-methoxy]isoquinoline], for which the pIC50 was 6.00 to 8.00.

Take `Clc1ccccc1CCC1CCCN1c1ncnc2[nH]cnc12` (racemic) [A5, 6-{2-[2-(2-chlorophenyl)ethyl]pyrrolidin-1-yl}-9H-purine]: the pIC50 is 5.00 to 6.00.
